Data: US20030118577A1, “Use of analogues of superoxide dismutase for treating hepatocellular insufficiencies” (priority 2000, published 2003)

Columns and labels:
[1] = test system: acute hepatic insufficiency induced by anti-Fas antibodies; test: Survival of mice after injection of anti-Fas antibody (fulminant hepatitis); format: in vivo; conditions: at 24 hours; 6 μg anti-Fas antibody iv; MnTBAP 10 mg/kg 2 hours beforehand; FIG. 3
Procedure: The injection of these antibodies into mice causes fulminant hepatitis due to a massive apoptosis of the hepatocytes, causing the death of the mice within a few hours following the injection [OGASAWARA et al., Nature, 364, pp. 806-809, (1993); NAGATA, Prog. Mol. Subcell. Biol., 16, pp. 87-103, (1996)].
27 control mice received, by intravenous injection, 6 μg of an anti-Fas monoclonal antibody (clone J02; PHARMINGEN) diluted in 100 μl of physiological saline; a second group of 15 mice received the same treatment, preceded by the administration, 2 hours beforehand, of 10 mg/kg of MnTBAP, as described in Example 1 above; a control group received MnTBAP alone (10 mg/kg).

[2] = test system: hepatocellular insufficiency induced by chronic intoxication with DMNA; test: Chronic intoxication with DMNA, histological examination; format: in vivo, mice
Procedure: The inventors also investigated the effects of MnSOD mimetics on hepatocellular insufficiency of toxic origin which can be induced in particular by alcohol, using an experimental model of intoxication with dimethylnitrosamine (DMNA) administered at the dose of 10 mg/kg in mice. This model is similar to intoxication with alcohol because the lesions induced by DMNA and alcohol are identical.
Intraperitoneal administration of 10 mg/kg/day of DMNA three times per week induces, in dogs and rodents, centrolobular and periportal lesions comprising fibrosis at the 4th week, and cirrhosis at the 13th week [RISTELLI et al., J. Biochem., 158, 361-367, (1976); MADDEN et al., Surgery, 68, 260-267, (1970)].

[3] = test system: ischemic lesions of hepatic grafts; test: Transaminase release from removed mouse livers in Belzer's preservation fluid; conditions: Belzer's fluid with MnTBAP 10 μg/ml; 4° C.
Procedure: Ischemia of hepatic grafts after their removal and during their preservation at 4° C. causes hepatocytic lesions.
The intensity of the lesions may be evaluated on the concentration of transaminases in the preservation fluid.
Mouse livers were surgically removed, rinsed with Belzer's preservation fluid supplemented or otherwise with MnTBAP at the concentration of 10 μg/ml. The transaminases were then assayed in the fluid at various times after removal of the organ.

[4] = known; cited from earlier work
[5] = Glutathione peroxidase activity of the mimetic; format: biochemical; conditions: observed by the inventors
[6] = test system: acute hepatic insufficiency induced by acetaminophen; test: Survival of mice after intraperitoneal acetaminophen (acute hepatic insufficiency); conditions: for rate of survival: 24 hours after acetaminophen 1000 mg/kg ip, FIG. 1

SMILES: O=C(O)c1ccc(-c2c3nc(c(-c4ccc(C(=O)O)cc4)c4ccc([n-]4)c(-c4ccc(C(=O)O)cc4)c4nc(c(-c5ccc(C(=O)O)cc5)c5ccc2[n-]5)C=C4)C=C3)cc1.[Mn+3] [MnTBAP, Mn(III) tetrakis(5,10,15,20-benzoic acid)porphyrin]
- rate of survival [1]: ~60%
- appearance of hepatic lesions on histological sections ([2]; DMNA 10 mg/kg in mice, different intoxication times): delays the appearance of hepatic lesions
- constitution of fibrosis on histological examination ([2]; DMNA 10 mg/kg/day ip three times per week, MnTBAP 10 mg/kg ip 24 hours after each DMNA): prevents the constitution of objectively viable fibrosis
- release of transaminases by the liver into preservation fluid [3]: reduction in the release of transaminases
- catalase activity [4]: known to possess a catalase activity
- glutathione peroxidase activity [5]: possessed, in addition, a glutathione peroxidase activity
- rate of survival ([6]; MnTBAP 10 mg/kg ip 2 h before acetaminophen): ~60%
- rate of survival ([6]; MnTBAP 10 mg/kg ip 6 h after acetaminophen): greater than 40%
- effect on survival rate, administered preventively ([6]; APAP 1000 mg/kg, 2 hours before (P)): increases the survival rate in a manner at least equal to NAC
- activity on survival, curative versus preventive administration ([6]; APAP 1000 mg/kg, 6 hours after (C) or 2 hours before (P)): active when it is administered curatively
- activity on survival by the oral route ([6]; APAP 1000 mg/kg, per os): active
- percentage of surviving animals ([6]; Group II: MnTBAP 10 mg/kg alone, no APAP, time 0 h): 100%
- percentage of surviving animals ([6]; Group II: MnTBAP 10 mg/kg alone, no APAP, time 6 h): 100%
- percentage of surviving animals ([6]; Group II: MnTBAP 10 mg/kg alone, no APAP, time 8 h): 100%
- percentage of surviving animals ([6]; Group II: MnTBAP 10 mg/kg alone, no APAP, time 9 h): 100%
- percentage of surviving animals ([6]; Group II: MnTBAP 10 mg/kg alone, no APAP, time 10 h): 100%
- percentage of surviving animals ([6]; Group II: MnTBAP 10 mg/kg alone, no APAP, time 11 h): 100%
- percentage of surviving animals ([6]; Group II: MnTBAP 10 mg/kg alone, no APAP, time 12 h): 100%
- percentage of surviving animals ([6]; Group II: MnTBAP 10 mg/kg alone, no APAP, time 13 h): 100%
- percentage of surviving animals ([6]; Group II: MnTBAP 10 mg/kg alone, no APAP, time 14 h): 100%
- percentage of surviving animals ([6]; Group II: MnTBAP 10 mg/kg alone, no APAP, time 15 h): 100%
- percentage of surviving animals ([6]; Group II: MnTBAP 10 mg/kg alone, no APAP, time 16 h): 100%
- percentage of surviving animals ([6]; Group II: MnTBAP 10 mg/kg alone, no APAP, time 17 h): 100%
- percentage of surviving animals ([6]; Group II: MnTBAP 10 mg/kg alone, no APAP, time 18 h): 100%
- percentage of surviving animals ([6]; Group II: MnTBAP 10 mg/kg alone, no APAP, time 20 h): 100%
- percentage of surviving animals ([6]; Group II: MnTBAP 10 mg/kg alone, no APAP, time 22 h): 100%
- percentage of surviving animals ([6]; Group II: MnTBAP 10 mg/kg alone, no APAP, time 24 h): 100%
- percentage of surviving animals ([6]; Group IX: APAP 1000 mg/kg, MnTBAP 50 mg/kg (P) per os, time 0 h): 100%
- percentage of surviving animals ([6]; Group IX: APAP 1000 mg/kg, MnTBAP 50 mg/kg (P) per os, time 6 h): 100%
- percentage of surviving animals ([6]; Group IX: APAP 1000 mg/kg, MnTBAP 50 mg/kg (P) per os, time 8 h): 88.8%
- percentage of surviving animals ([6]; Group IX: APAP 1000 mg/kg, MnTBAP 50 mg/kg (P) per os, time 9 h): 88.8%
- percentage of surviving animals ([6]; Group IX: APAP 1000 mg/kg, MnTBAP 50 mg/kg (P) per os, time 10 h): 88.8%
- percentage of surviving animals ([6]; Group IX: APAP 1000 mg/kg, MnTBAP 50 mg/kg (P) per os, time 11 h): 88.8%
- percentage of surviving animals ([6]; Group IX: APAP 1000 mg/kg, MnTBAP 50 mg/kg (P) per os, time 12 h): 88.8%
- percentage of surviving animals ([6]; Group IX: APAP 1000 mg/kg, MnTBAP 50 mg/kg (P) per os, time 13 h): 88.8%
- percentage of surviving animals ([6]; Group IX: APAP 1000 mg/kg, MnTBAP 50 mg/kg (P) per os, time 14 h): 88.8%
- percentage of surviving animals ([6]; Group IX: APAP 1000 mg/kg, MnTBAP 50 mg/kg (P) per os, time 15 h): 88.8%
- percentage of surviving animals ([6]; Group IX: APAP 1000 mg/kg, MnTBAP 50 mg/kg (P) per os, time 16 h): 88.8%
- percentage of surviving animals ([6]; Group IX: APAP 1000 mg/kg, MnTBAP 50 mg/kg (P) per os, time 17 h): 77.7%
- percentage of surviving animals ([6]; Group IX: APAP 1000 mg/kg, MnTBAP 50 mg/kg (P) per os, time 18 h): 66.6%
- percentage of surviving animals ([6]; Group IX: APAP 1000 mg/kg, MnTBAP 50 mg/kg (P) per os, time 20 h): 66.6%
- percentage of surviving animals ([6]; Group IX: APAP 1000 mg/kg, MnTBAP 50 mg/kg (P) per os, time 22 h): 66.6%
- percentage of surviving animals ([6]; Group IX: APAP 1000 mg/kg, MnTBAP 50 mg/kg (P) per os, time 24 h): 66.6%
- percentage of surviving animals ([6]; Group V: APAP 1000 mg/kg, MnTBAP 10 mg/kg (P), time 0 h): 100%
- percentage of surviving animals ([6]; Group V: APAP 1000 mg/kg, MnTBAP 10 mg/kg (P), time 6 h): 100%
- percentage of surviving animals ([6]; Group V: APAP 1000 mg/kg, MnTBAP 10 mg/kg (P), time 8 h): 100%
- percentage of surviving animals ([6]; Group V: APAP 1000 mg/kg, MnTBAP 10 mg/kg (P), time 9 h): 91.4%
- percentage of surviving animals ([6]; Group V: APAP 1000 mg/kg, MnTBAP 10 mg/kg (P), time 10 h): 88.6%
- percentage of surviving animals ([6]; Group V: APAP 1000 mg/kg, MnTBAP 10 mg/kg (P), time 11 h): 77.1%
- percentage of surviving animals ([6]; Group V: APAP 1000 mg/kg, MnTBAP 10 mg/kg (P), time 12 h): 74.3%
- percentage of surviving animals ([6]; Group V: APAP 1000 mg/kg, MnTBAP 10 mg/kg (P), time 13 h): 74.3%
- percentage of surviving animals ([6]; Group V: APAP 1000 mg/kg, MnTBAP 10 mg/kg (P), time 14 h): 71.4%
- percentage of surviving animals ([6]; Group V: APAP 1000 mg/kg, MnTBAP 10 mg/kg (P), time 15 h): 71.4%
- percentage of surviving animals ([6]; Group V: APAP 1000 mg/kg, MnTBAP 10 mg/kg (P), time 16 h): 68.6%
